Like-named read-outs stand apart in the source and are kept apart here.
How the values were obtained:
[1] = system: Mycosphaerella graminicola (Septoria tritici); assay: Example A14: Mycosphaerella graminicola (Septoria tritici) / liquid culture (Septoria blotch); format: cell-based; settings: Zymoseptoria tritici; read-out: control of Mycosphaerella graminicola
[2] = system: Monographella nivalis (Microdochium nivale); assay: Example A6: Monographella nivalis (Microdochium nivale) / liquid culture (foot rot cereals); format: cell-based; settings: read-out: control of Monographella nivalis
Pyrenophora teres = assay: Example A12: Pyrenophora teres / barley / leaf disc preventative (net blotch); format: in vivo; settings: foliar, inoculated 2 days after application, compared to untreated control
Alternaria solani = assay: Example A1: Alternaria solani / tomato / leaf disc (early blight); format: in vivo; settings: foliar, tomato leaf disks inoculated 2 days after application, compared to untreated control
[3] = system: Glomerella lagenarium (Colletotrichum lagenarium); assay: Example A3: Glomerella lagenarium (Colletotrichum lagenarium) / liquid culture (anthracnose); format: cell-based; settings: Colletotrichum orbiculare; read-out: control of Glomerella lagenarium
[4] = system: Magnaporthe grisea (Pyricularia oryzae); assay: whole plant or invertebrate; format: in vivo; settings: foliar, read-out: control of Magnaporthe grisea
[5] = system: Puccinia recondita f. sp. tritici; format: in vivo; settings: foliar, wheat leaf disc preventative, inoculated 1 day after application, compared to untreated control
[6] = system: Mycosphaerella arachidis (Cercospora arachidicola); assay: Example A7: Mycosphaerella arachidis (Cercospora arachidicola) / liquid culture (early leaf spot); format: cell-based; settings: read-out: control of Mycosphaerella arachidis
Phakopsora pachyrhizi = assay: Example A8: Phakopsora pachyrhizi / soybean / preventative (soybean rust); format: in vivo; settings: foliar, soybean leaf disks preventative, inoculated one day after application, compared to untreated control
[7] = system: Puccinia recondita f. sp. tritici; format: in vivo; settings: foliar, 24 h, wheat leaf disc curative, applied 1 day after inoculation, compared to untreated control

CC(=O)OC(C)C(=O)N(c1cc(F)nc(F)c1)c1nc(C(=O)NC2CCC23CCCC3)c(C)s1 (stereo not shown) [X.01, [2-[(2,6-difluoro-4-pyridyl)-[5-methyl-4-(spiro[3.4]octan-3-ylcarbamoyl)thiazol-2-yl]amino]-1-methyl-2-oxo-ethyl] acetate]
≥ 80%: inhibition of growth at 20 ppm [1] | inhibition of growth at 20 ppm [2] | pest or weed control at 200 ppm (Pyrenophora teres) | pest or weed control at 200 ppm (Alternaria solani) | inhibition of growth at 20 ppm [3] | pest or weed control at 200 ppm [4] | pest or weed control at 200 ppm [5]

CCOC(=O)OC(C)C(=O)N(c1cc(F)nc(F)c1)c1nc(C(=O)NC2CCC2)c(C)s1 (stereo not shown) [X.02, [2-[[4-(cyclobutylcarbamoyl)-5-methyl-thiazol-2-yl]-(2,6-difluoro-4-pyridyl)amino]-1-methyl-2-oxo-ethyl] ethyl carbonate]
≥ 80%: pest or weed control at 200 ppm [4] | pest or weed control at 200 ppm [5]

COC(=O)OC(C)C(=O)N(c1cc(F)nc(F)c1)c1nc(C(=O)NC2CCC23CCCC3)c(C)s1 (stereo not shown) [X.03, [2-[(2,6-difluoro-4-pyridyl)-[5-methyl-4-(spiro[3.4]octan-3-ylcarbamoyl)thiazol-2-yl]amino]-1-methyl-2-oxo-ethyl] methyl carbonate]
≥ 80%: inhibition of growth at 20 ppm [1] | inhibition of growth at 20 ppm [2] | pest or weed control at 200 ppm (Pyrenophora teres) | inhibition of growth at 20 ppm [3] | pest or weed control at 200 ppm [4] | pest or weed control at 200 ppm [5]

CCOC(=O)OC(C)C(=O)N(c1cc(F)nc(F)c1)c1nc(C(=O)NC2CCC23CCCC3)c(C)s1 (stereo not shown) [X.04, [2-[(2,6-difluoro-4-pyridyl)-[5-methyl-4-(spiro[3.4]octan-3-ylcarbamoyl)thiazol-2-yl]amino]-1-methyl-2-oxo-ethyl] ethyl carbonate]
≥ 80%: inhibition of growth at 20 ppm [1] | inhibition of growth at 20 ppm [2] | pest or weed control at 200 ppm (Pyrenophora teres) | inhibition of growth at 20 ppm [6] | pest or weed control at 200 ppm (Alternaria solani) | inhibition of growth at 20 ppm [3] | pest or weed control at 200 ppm [4] | pest or weed control at 200 ppm [5]

Cc1sc(N(C(=O)C(C)O)c2cc(F)nc(F)c2)nc1C(=O)NC1CCC12CCCC2 (stereo not shown) [X.05, 2-[(2,6-difluoro-4-pyridyl)-(2-hydroxypropanoyl)amino]-5-methyl-N-spiro[3.4]octan-3-yl-thiazole-4-carboxamide]
≥ 80%: inhibition of growth at 20 ppm [1] | inhibition of growth at 20 ppm [2] | inhibition of growth at 20 ppm [3] | pest or weed control at 200 ppm [4] | pest or weed control at 200 ppm [5]

COC(C)C(=O)N(c1cc(F)nc(F)c1)c1nc(C(=O)NC2CCC2)c(C)s1 (stereo not shown) [X.07, N-cyclobutyl-2-[(2,6-difluoro-4-pyridyl)-(2-methoxypropanoyl)amino]-5-methylthiazole-4-carboxamide]
≥ 80%: pest or weed control at 200 ppm (Phakopsora pachyrhizi) | pest or weed control at 200 ppm [4] | pest or weed control at 200 ppm [5]

Cc1sc(N(C(=O)Cc2ccccc2)c2cc(F)nc(F)c2)nc1C(=O)NC1CCC1(C)C (stereo not shown) [X.09, 2-[(2,6-difluoro-4-pyridyl)-(2-phenylacetyl)amino]-N-(2,2-dimethylcyclobutyl)-5-methyl-thiazole-4-carboxamide]
≥ 80%: inhibition of growth at 20 ppm [1] | inhibition of growth at 20 ppm [2] | pest or weed control at 200 ppm (Alternaria solani) | inhibition of growth at 20 ppm [3] | pest or weed control at 200 ppm [4] | pest or weed control at 200 ppm [5]

COc1sc(N(C(C)=O)c2cc(F)nc(F)c2)nc1C(=O)NC1CCC12CCCC2 (stereo not shown) [X.10, 2-[acetyl-(2,6-difluoro-4-pyridyl)amino]-5-methoxy-N-spiro[3.4]octan-3-yl-thiazole-4-carboxamide]
≥ 80%: pest or weed control at 200 ppm (Pyrenophora teres) | pest or weed control at 200 ppm [4]

COCC(=O)N(c1cc(F)nc(F)c1)c1nc(C(=O)NC2CCC2)c(C)s1 [X.12, N-cyclobutyl-2-[(2,6-difluoro-4-pyridyl)-(2-methoxyacetyl)amino]-5-methyl-thiazole-4-carboxamide]
≥ 80%: inhibition of growth at 20 ppm [2] | pest or weed control at 200 ppm (Pyrenophora teres) | pest or weed control at 200 ppm [4] | pest or weed control at 200 ppm [5]

CC(=O)N(c1cc(F)nc(F)c1)c1nc(C(=O)NC2CCC2)c(C)s1 [X.13, 2-[acetyl-(2,6-difluoro-4-pyridyl)amino]-N-cyclobutyl-5-methyl-thiazole-4-carboxamide]
≥ 80%: pest or weed control at 200 ppm [4] | pest or weed control at 200 ppm [5]

CCN(CC)C(=O)N(c1cc(F)nc(F)c1)c1nc(C(=O)NC2CCC2(C)C)c(C)s1 (stereo not shown) [X.16, 2-[diethylcarbamoyl-(2,6-difluoro-4-pyridyl)amino]-N-(2,2-dimethylcyclobutyl)-5-methyl-thiazole-4-carboxamide]
≥ 80%: inhibition of growth at 20 ppm [2] | inhibition of growth at 20 ppm [3] | pest or weed control at 200 ppm [4]

Cc1sc(N(C(=O)c2ccco2)c2cc(F)nc(F)c2)nc1C(=O)NC1CCC1(C)C (stereo not shown) [X.19, 2-[(2,6-difluoro-4-pyridyl)-(furan-2-carbonyl)amino]-N-(2,2-dimethylcyclobutyl)-5-methyl-thiazole-4-carboxamide]
≥ 80%: pest or weed control at 200 ppm [4] | pest or weed control at 200 ppm [5]

Cc1sc(N(C(=O)CC(F)(F)F)c2cc(F)nc(F)c2)nc1C(=O)NC1CCC1(C)C (stereo not shown) [X.21, 2-[(2,6-difluoro-4-pyridyl)-(3,3,3-trifluoropropanoyl)amino]-N-(2,2-dimethylcyclobutyl)-5-methyl-thiazole-4-carboxamide]
≥ 80%: inhibition of growth at 20 ppm [1] | inhibition of growth at 20 ppm [2] | inhibition of growth at 20 ppm [6] | pest or weed control at 200 ppm (Alternaria solani) | inhibition of growth at 20 ppm [3] | pest or weed control at 200 ppm [4] | pest or weed control at 200 ppm [7] | pest or weed control at 200 ppm [5]

COC(=O)CCC(=O)N(c1cc(F)nc(F)c1)c1nc(C(=O)NC2CCC2(C)C)c(C)s1 (stereo not shown) [X.23, methyl 4-[(2,6-difluoro-4-pyridyl)-[4-[(2,2-dimethylcyclobutyl)carbamoyl]-5-methyl-thiazol-2-yl]amino]-4-oxo-butanoate]
≥ 80%: inhibition of growth at 20 ppm [2] | pest or weed control at 200 ppm (Pyrenophora teres) | pest or weed control at 200 ppm (Alternaria solani) | inhibition of growth at 20 ppm [3] | pest or weed control at 200 ppm [4] | pest or weed control at 200 ppm [7] | pest or weed control at 200 ppm [5]

Cc1sc(N(C(=O)Oc2ccccc2)c2cc(F)nc(F)c2)nc1C(=O)NC1CCC1(C)C (stereo not shown) [X.26, phenyl N-(2,6-difluoro-4-pyridyl)-N-[4-[(2,2-dimethylcyclobutyl)carbamoyl]-5-methyl-thiazol-2-yl]carbamate]
≥ 80%: inhibition of growth at 20 ppm [2] | pest or weed control at 200 ppm [4]

COCCOC(=O)N(c1cc(F)nc(F)c1)c1nc(C(=O)NC2CCC2(C)C)c(C)s1 (stereo not shown) [X.28, 2-methoxyethyl N-(2,6-difluoro-4-pyridyl)-N-[4-[(2,2-dimethylcyclobutyl)carbamoyl]-5-methyl-thiazol-2-yl]carbamate]
≥ 80%: inhibition of growth at 20 ppm [2] | pest or weed control at 200 ppm [4] | pest or weed control at 200 ppm [7] | pest or weed control at 200 ppm [5]

Cc1sc(N(C(=O)c2cccs2)c2cc(F)nc(F)c2)nc1C(=O)NC1CCC1(C)C (stereo not shown) [X.31, 2-[(2,6-difluoro-4-pyridyl)-(thiophene-2-carbonyl)amino]-N-(2,2-dimethylcyclobutyl)-5-methyl-thiazole-4-carboxamide]
≥ 80%: inhibition of growth at 20 ppm [2] | pest or weed control at 200 ppm [4]

COC(=O)N(c1cc(F)nc(F)c1)c1nc(C(=O)NC2CCC2(C)C)c(C)s1 (stereo not shown) [X.32, methyl N-(2,6-difluoro-4-pyridyl)-N-[4-[(2,2-dimethylcyclobutyl)carbamoyl]-5-methyl-thiazol-2-yl]carbamate]
≥ 80%: pest or weed control at 200 ppm [4]

CC(=O)N(c1cc(F)nc(F)c1)c1nc(C(=O)NC2CCC23CCCC3)c(C)s1 (stereo not shown) [X.37, 2-[acetyl-(2,6-difluoro-4-pyridyl)amino]-5-methyl-N-spiro[3.4] octan-3-yl-thiazole-4-carboxamide]
≥ 80%: pest or weed control at 200 ppm (Pyrenophora teres) | pest or weed control at 200 ppm [4]

— patent US20230270114A1, “FUNGICIDAL COMPOSITIONS” (SYNGENTA CROP PROTECTION AG, priority 2020, published 2023)
